Measurements published in PMC3176812, “Co-Crystal Structures of Inhibitors with MRCKβ, a Key Regulator of Tumor Cell Invasion” (PLoS ONE, 2011).

Experiments:
MRCKβ = molecular target: T1, MRCKβ (Homo sapiens, UniProt Q9Y5S2); test: IMAP fluorescence polarization in vitro kinase assay, MRCKβ; assay type: biochemical; details: for Inhibition at 3 µM (%) / Inhibition at 30 µM (%): MRCKβ in vitro kinase assay, ATP at enzyme Km (0.7 µM); for Inhibition at 3 µM (%): 3 µM inhibitor; for Inhibition at 30 µM (%): 30 µM inhibitor; for inhibition at 3 µM: read-out: Inhibition at 3 µM (%); for inhibition at 30 µM: read-out: Inhibition at 30 µM (%); for IC50: 10 point dose-response, 0.002–40 µM, 0.7 µM ATP
T1 construct: purchased Millipore
T1 sequence (Q9Y5S2 whole entry): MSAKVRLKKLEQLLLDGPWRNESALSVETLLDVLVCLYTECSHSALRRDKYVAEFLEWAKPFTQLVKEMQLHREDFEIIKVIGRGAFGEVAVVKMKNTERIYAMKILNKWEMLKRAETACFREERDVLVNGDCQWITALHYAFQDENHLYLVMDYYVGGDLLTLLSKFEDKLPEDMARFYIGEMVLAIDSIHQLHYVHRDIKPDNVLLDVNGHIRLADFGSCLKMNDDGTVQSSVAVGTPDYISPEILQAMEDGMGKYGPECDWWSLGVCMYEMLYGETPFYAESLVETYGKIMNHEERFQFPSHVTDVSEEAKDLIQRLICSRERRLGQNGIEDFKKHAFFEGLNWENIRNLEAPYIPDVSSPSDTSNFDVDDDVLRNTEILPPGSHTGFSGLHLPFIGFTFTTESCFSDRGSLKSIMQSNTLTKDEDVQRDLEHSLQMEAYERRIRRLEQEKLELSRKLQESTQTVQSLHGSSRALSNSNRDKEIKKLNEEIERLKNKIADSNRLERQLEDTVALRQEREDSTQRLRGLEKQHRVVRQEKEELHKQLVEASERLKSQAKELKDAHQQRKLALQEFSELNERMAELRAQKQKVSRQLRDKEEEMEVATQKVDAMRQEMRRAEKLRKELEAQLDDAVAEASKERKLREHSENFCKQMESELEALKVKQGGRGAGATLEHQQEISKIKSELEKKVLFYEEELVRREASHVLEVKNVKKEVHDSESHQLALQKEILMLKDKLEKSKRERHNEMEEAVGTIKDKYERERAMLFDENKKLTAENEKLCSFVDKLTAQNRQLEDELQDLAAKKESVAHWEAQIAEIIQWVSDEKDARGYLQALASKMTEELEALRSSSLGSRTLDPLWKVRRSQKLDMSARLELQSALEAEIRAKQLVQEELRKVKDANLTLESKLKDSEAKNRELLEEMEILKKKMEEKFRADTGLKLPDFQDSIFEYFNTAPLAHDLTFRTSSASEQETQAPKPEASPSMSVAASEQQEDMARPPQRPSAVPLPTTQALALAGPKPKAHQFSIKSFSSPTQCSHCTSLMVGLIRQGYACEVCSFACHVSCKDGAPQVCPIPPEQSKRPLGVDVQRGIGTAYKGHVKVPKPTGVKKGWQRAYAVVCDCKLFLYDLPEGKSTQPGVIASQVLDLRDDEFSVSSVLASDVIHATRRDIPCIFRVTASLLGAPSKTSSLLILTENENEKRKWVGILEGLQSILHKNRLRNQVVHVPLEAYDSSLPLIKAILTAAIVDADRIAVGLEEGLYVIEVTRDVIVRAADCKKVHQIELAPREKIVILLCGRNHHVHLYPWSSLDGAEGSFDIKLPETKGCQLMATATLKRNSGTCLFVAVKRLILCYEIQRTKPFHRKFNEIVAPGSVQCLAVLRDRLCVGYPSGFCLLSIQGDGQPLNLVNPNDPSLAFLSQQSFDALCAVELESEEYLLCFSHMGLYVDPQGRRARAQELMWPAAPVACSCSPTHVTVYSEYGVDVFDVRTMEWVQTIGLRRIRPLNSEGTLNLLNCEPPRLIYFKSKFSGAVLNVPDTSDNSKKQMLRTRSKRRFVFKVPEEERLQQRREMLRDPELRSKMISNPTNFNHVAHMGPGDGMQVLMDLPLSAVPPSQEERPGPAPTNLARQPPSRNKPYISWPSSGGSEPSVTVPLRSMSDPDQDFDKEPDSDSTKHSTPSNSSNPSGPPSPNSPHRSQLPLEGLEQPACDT

MRCK = tested on: MRCK; parameters: method as in earlier work; details: >140 times higher ATP concentration; ref 27 (Amano et al.); cited from earlier work
MRCKα = molecular target: T2, MRCKα (Homo sapiens, UniProt Q5VT25); test: IMAP fluorescence polarization in vitro kinase assay, MRCKα; assay type: biochemical; details: 10 point dose-response, 0.002–40 µM, 0.7 µM ATP
T2 construct: purchased Millipore
T2 sequence (Q5VT25 whole entry): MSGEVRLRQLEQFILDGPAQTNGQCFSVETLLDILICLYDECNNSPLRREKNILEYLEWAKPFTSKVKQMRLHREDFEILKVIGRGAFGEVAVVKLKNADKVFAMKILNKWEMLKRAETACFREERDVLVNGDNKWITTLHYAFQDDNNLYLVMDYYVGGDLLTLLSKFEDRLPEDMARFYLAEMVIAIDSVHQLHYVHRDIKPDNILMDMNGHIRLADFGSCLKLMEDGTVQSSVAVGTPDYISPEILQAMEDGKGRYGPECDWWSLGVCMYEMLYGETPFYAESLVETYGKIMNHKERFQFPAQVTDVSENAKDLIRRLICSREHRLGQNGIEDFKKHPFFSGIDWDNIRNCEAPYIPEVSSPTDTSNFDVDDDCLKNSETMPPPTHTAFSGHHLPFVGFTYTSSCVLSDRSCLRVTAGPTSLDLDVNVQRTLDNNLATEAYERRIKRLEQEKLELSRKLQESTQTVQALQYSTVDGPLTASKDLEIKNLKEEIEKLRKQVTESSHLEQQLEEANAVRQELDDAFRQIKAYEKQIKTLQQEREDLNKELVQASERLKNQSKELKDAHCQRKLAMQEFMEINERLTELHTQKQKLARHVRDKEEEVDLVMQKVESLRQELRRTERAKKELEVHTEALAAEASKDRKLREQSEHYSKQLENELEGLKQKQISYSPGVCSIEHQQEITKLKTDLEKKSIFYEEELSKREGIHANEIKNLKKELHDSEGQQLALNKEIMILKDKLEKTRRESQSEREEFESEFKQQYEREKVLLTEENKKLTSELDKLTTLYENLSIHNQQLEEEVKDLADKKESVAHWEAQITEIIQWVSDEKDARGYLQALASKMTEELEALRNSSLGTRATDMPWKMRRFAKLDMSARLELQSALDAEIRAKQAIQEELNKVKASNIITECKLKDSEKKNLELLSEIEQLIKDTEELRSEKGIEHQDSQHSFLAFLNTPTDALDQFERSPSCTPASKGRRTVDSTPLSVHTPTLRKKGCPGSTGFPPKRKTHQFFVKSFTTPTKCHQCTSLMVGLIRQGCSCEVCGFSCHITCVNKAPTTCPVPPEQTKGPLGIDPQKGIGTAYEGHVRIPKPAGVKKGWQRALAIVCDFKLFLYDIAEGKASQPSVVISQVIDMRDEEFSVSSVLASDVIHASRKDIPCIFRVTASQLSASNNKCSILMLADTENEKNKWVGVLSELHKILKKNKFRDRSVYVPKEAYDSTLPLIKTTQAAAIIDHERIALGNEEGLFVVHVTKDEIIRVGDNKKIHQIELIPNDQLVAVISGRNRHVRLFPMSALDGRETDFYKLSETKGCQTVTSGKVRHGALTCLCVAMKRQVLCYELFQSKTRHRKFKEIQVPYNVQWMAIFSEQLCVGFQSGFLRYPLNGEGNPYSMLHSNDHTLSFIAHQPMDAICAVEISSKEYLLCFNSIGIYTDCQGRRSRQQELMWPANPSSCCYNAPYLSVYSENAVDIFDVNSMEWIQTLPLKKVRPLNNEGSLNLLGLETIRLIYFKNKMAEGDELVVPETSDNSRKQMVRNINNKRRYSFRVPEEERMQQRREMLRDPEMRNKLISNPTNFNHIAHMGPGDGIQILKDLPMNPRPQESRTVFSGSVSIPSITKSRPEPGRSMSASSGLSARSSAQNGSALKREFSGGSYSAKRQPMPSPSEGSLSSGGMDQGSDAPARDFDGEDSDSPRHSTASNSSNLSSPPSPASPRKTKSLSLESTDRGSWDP
Protocol: Activity assays for MRCKα and β were performed using an IMAP fluorescence polarization assay kit (Molecular Devices Inc.). […] Dose response inhibition analyses were performed over a drug concentration range from 0.002–40 µM, and single point inhibition was assessed at 3 or 30 µM drug.

[1] = tested on: MDA MB 231 breast cancer cells; test: 3-dimensional inverse matrigel invasion assay; assay type: cell-based; details: 5 days
Source text: The contribution of MRCK to tumor cell invasion was examined by knocking down both MRCKα and MRCKβ in MB 231 breast cancer cells and determining the effects in a 3-dimensional inverse matrigel invasion assay. The combined MRCKα plus MRCKβ knockdown could be achieved either with two siRNA duplexes targeting each mRNA transcript (MRCKα+β) or with a single siRNA duplex (MRCKα/β) that targets both (Figure 1A). Following plating on the underside of Transwell inserts containing a thick layer of matrigel and allowing 5 days for invasion through the porous filter and into the matrigel, the extent of MDA MB 231 cell invasion was determined by fixing and staining cells with propidium iodide, followed by confocal microscopic optical sectioning at 10 µm intervals (Figure 1B).
Cell invasion assays were as previously described. Complete Matrigel was thawed on ice, diluted 1∶1 with PBS and then 100 µl of diluted matrigel pipetted into Transwell inserts in a 24 well tissue culture plate and left to incubate for 30 minutes at 37°C to set. During this time cell suspensions of 3×10^5 cells per ml from each condition were prepared in their normal growth medium. When the Matrigel had set, the Transwell inserts were inverted and 100 µl of cell suspension pipetted onto the filter. […] ImageJ software was used for quantification. […]

| Molecule | Inhibition at 3 µM (%) (MRCKβ) | Inhibition at 30 µM (%) (MRCKβ) | also measured |
| --- | --- | --- | --- |
| N#CCCc1ccc2c(c1)-c1[nH]c3ccc([N+](=O)[O-])cc3c1CC(=O)N2 [Alsterpaullone, 2-Cyanoethyl] | 98.4 | 94.8 | – |
| O=C1Cc2c([nH]c3ccc([N+](=O)[O-])cc23)-c2ccccc2N1 [Alsterpaullone] | – | – | inhibition at 3 µM (MRCKβ): 90.7%; inhibition at 30 µM (MRCKβ): 78.4% |
| CN(C)CCCn1cc(C2=C(c3c[nH]c4ccccc34)C(=O)NC2=O)c2ccccc21 [Bisindolylmaleimide I] | 87.9 | – | – |
| CCn1cnc2c(Nc3cccc(Cl)c3)nc(N[C@H]3CCCC[C@H]3N)nc21 [Cdk1 Inhibitor, CGP74514A] | 87.2 | 100 | – |
| O=S(=O)(c1cccc2cnccc12)N1CCCNCC1 [Fasudil] | – | – | Inhibition of MRCK activity (MRCK): did not effectively inhibit MRCK activity |
| COc1ccc2c(c1)c(C1=C(c3c[nH]c4ccccc34)C(=O)NC1=O)cn2CCCN(C)C [Gö 6983] | 88.6 | 65.1 | – |
| O=S(=O)(NCCNC/C=C/c1ccc(Br)cc1)c1cccc2cnccc12 [H-89] | 79.3 | 99.1 | – |
| COC(=O)[C@@]1(O)C[C@H]2O[C@]1(C)n1c3ccccc3c3c4c(c5c6ccccc6n2c5c31)C(=O)NC4 [K-252a, Nocardiopsis sp., K-252a] | 87.3 | 98.4 | – |
| O=C1Nc2ccc3ncsc3c2/C1=C/c1cnc[nH]1 [PKR Inhibitor] | 80.1 | 100.5 | – |
| CN(C)C[C@H]1CCn2c(c(C3=C(c4cn(C)c5ccccc45)C(=O)NC3=O)c3ccccc32)C1 [Ro-32-0432] | 85.2 | 68.2 | – |
| CN[C@@H]1C[C@H]2O[C@@](C)([C@@H]1OC)n1c3ccccc3c3c4c(c5c6ccccc6n2c5c31)C(=O)NC4 [Staurosporine] | – | – | inhibition at 3 µM (MRCKβ): 98.6%; inhibition at 30 µM (MRCKβ): 100% |
| NC(=O)Nc1sc(-c2ccc(F)cc2)cc1C(N)=O [TPCA-1, 2-[(aminocarbonyl)amino]-5-(4-fluorophenyl)-3-thiophenecarboxamide] | – | – | IC50 (MRCKβ): 1.69 ± 0.13 µM; inhibition at 3 µM (MRCKβ): 50.1%; inhibition at 30 µM (MRCKβ): 88.9%; IC50 (MRCKα): 1.04 ± 0.06 µM |
| C[C@@H](N)[C@H]1CC[C@H](C(=O)Nc2ccncc2)CC1 [Y-27632] | 83.5 | 96.6 | Invasion 40 µm above the transwell filter surface, combination with MRCKα/β knockdown ([1]; MDA MB 231 cells with MRCKα/β siRNA knockdown plus Y-27632 treatment): significantly more effective than either MRCKα/β knockdown or Y-27632 treatment alone; Invasion 40 µm above the transwell filter surface, normalized to NTC siRNA transfected cells ([1]; NTC siRNA transfected MDA MB 231 cells): significantly reduced invasion; IC50 (MRCKβ): 0.47 ± 0.03 µM |
| Cdk1/2 Inhibitor III | 100 | 100 | – |
